Results published in patent publication US9511058B2, “Methods for using carboxamide, sulfonamide and amine compounds” (Rigel Pharmaceuticals, Inc., priority 2010, dated 2016).
Each block holds one molecule with its values, some of them ahead of it.

Target: AMPK
Assay: AMPK activation, enzyme-linked immunosorbent assay
Type: biochemical
Procedure: Compounds of Table 1 were assayed for their ability to activate AMPK using an enzyme-linked immunosorbent assay.
Compounds of Table 2 were assayed for their ability to activate AMPK using an enzyme-linked immunosorbent assay.
Compounds of Table 3 were assayed for their ability to activate AMPK using an enzyme-linked immunosorbent assay.
Compounds of Table 4 were assayed for their ability to activate AMPK using an enzyme-linked immunosorbent assay.
Compounds of Table 5 were assayed for their ability to activate AMPK using an enzyme-linked immunosorbent assay.

[1] = compounds of Table 5 (Table 10)

EC50 (compounds of Table 1 (Table 6)): 100 to 500 nM
SMILES: CC(C)(C)OC(=O)N1CCC(NC(=O)c2ccc(OC3CCN(c4ccc(C(F)(F)F)cc4)CC3)nc2)CC1 [1-9, tert-butyl 4-(6-(1-(4-(trifluoromethyl)phenyl)piperidin-4-yloxy)nicotinamido)piperidine-1-carboxylate]

EC50 (compounds of Table 1 (Table 6)): < 100 nM
SMILES: N#Cc1ccc(CN2CCC(NC(=O)c3cc(OC4CCN(c5ccc(C(F)(F)F)cc5)CC4)ccn3)CC2)cc1 [1-28, N-(1-(4-cyanobenzyl)piperidin-4-yl)-4-(1-(4-(trifluoromethyl)phenyl)piperidin-4-yloxy)picolinamide]

EC50 (compounds of Table 3 (Table 8)): 1000 to 10000 nM
SMILES: CC(C)(C)OC(=O)N1CCC(NC(=O)c2cnc(OC3CCN(c4ccc(C(F)(F)F)cc4)CC3)cn2)CC1 [3-19, tert-butyl 4-(5-(1-(4-(trifluoromethyl)phenyl)piperidin-4-yloxy)pyrazine-2-carboxamido)piperidine-1-carboxylate]

EC50 (compounds of Table 1 (Table 6)): 100 to 500 nM
SMILES: O=C(NC1CCN(Cc2ccncc2)CC1)c1cc2cc(OC3CCN(c4ccc(C(F)(F)F)cc4)CC3)ccc2o1 [1-76, N-(1-(pyridin-4-ylmethyl)piperidin-4-yl)-5-(1-(4-(trifluoromethyl)phenyl)piperidin-4-yloxy)benzofuran-2-carboxamide]

EC50 (compounds of Table 1 (Table 6)): < 100 nM
SMILES: Cc1c(C(=O)NC2CCN(Cc3cccnc3)CC2)oc2cc(OC3CCN(c4ccc(C(F)(F)F)cc4)CC3)ccc12 [1-69, 3-methyl-N-(1-(pyridin-3-ylmethyl)piperidin-4-yl)-6-(1-(4-(trifluoromethyl)phenyl)piperidin-4-yloxy)benzofuran-2-carboxamide]

EC50 (compounds of Table 2 (Table 7)): 500 to 1000 nM
SMILES: O=C(NC1CCN(Cc2ccc(C(F)(F)F)cc2)CC1)c1ccc2[nH]c3c(c2c1)CN(Cc1ccc(F)cc1)CC3 [2-10, N-(1-(4-trifluoro-methylbenzyl)piperidin-4-yl)-2-(4-fluorobenzyl)-2,3,4,5-tetrahydro-1H-pyrido[4,3-b] indole-8-carboxamide]

EC50 (compounds of Table 2 (Table 7)): 1000 to 5000 nM
SMILES: O=C(NC1CCN(S(=O)(=O)c2ccc(F)cc2)CC1)c1ccc2[nH]c3c(c2c1)CN(Cc1ccc(C(F)(F)F)cc1)CC3 [2-28, N-(1-(4-fluorophenyl-sulfonyl)piperidin-4-yl)-2-(4-(trifluoro-methyl)benzyl)-2,3,4,5-tetrahydro-1H-pyrido [4,3-b]indole-8-carboxamide]

EC50 (compounds of Table 1 (Table 6)): 500 to 1000 nM
SMILES: N#Cc1ccc(CN2CC[C@@H](NC(=O)c3ccc(OC4CCN(c5ccc(C(F)(F)F)cc5)CC4)cn3)C2)cc1 [1-33, (R)-N-(1-(4-cyanobenzyl)pyrrolidin-3-yl)-5-(1-(4-(trifluoromethyl)phenyl)piperidin-4-yloxy)picolinamide]

EC50 [1]: 10000 to 20000 nM
SMILES: O=C(NC1CCN(Cc2ccccc2)CC1)c1cccc(OC2CCN(c3ccncc3)CC2)c1 [5-53, N-(1-benzylpiperidin-4-yl)-3-(1-(pyridin-4-yl)piperidin-4-yloxy)benzamide]

EC50 (compounds of Table 2 (Table 7)): > 100000 nM
SMILES: O=C(NC1CCN(C(=O)c2cccnc2)CC1)c1ccc2[nH]c3c(c2c1)CN(c1ccc(F)cc1)CC3 [2-40, 2-(4-fluorophenyl)-N-(1-nicotinoylpiperidin-4-yl)-2,3,4,5-tetrahydro-1H-pyrido [4,3-b]indole-8-carboxamide]

EC50 (compounds of Table 1 (Table 6)): < 100 nM
SMILES: O=C(NC1CCN(Cc2ccncc2)CC1)c1cc2cc(OC3CCN(c4ccc(OC(F)(F)F)cc4)CC3)ccc2o1 [1-78, N-(1-(pyridin-4-ylmethyl)piperidin-4-yl)-5-(1-(4-(trifluoromethoxy)phenyl)piperidin-4-yloxy)benzofuran-2-carboxamide]

EC50 (compounds of Table 1 (Table 6)): 1000 to 5000 nM
SMILES: CN(C(=O)c1cc2cc(OC3CCN(c4ccc(C(F)(F)F)cc4)CC3)ccc2o1)C1CCNCC1 [1-103, N-methyl-N-(piperidin-4-yl)-5-(1-(4-(trifluoromethyl)phenyl)piperidin-4-yloxy)benzofuran-2-carboxamide]

EC50 [1]: < 1000 nM
SMILES: O=C(NC1CCN(Cc2ccccc2)CC1)c1ccc(OC2CCN(Cc3ccc(OC(F)(F)F)cc3)CC2)c(F)c1 [5-57, N-(1-benzylpiperidin-4-yl)-3-fluoro-4-(1-(4-(trifluoromethoxy)benzyl)piperidin-4-yloxy)benzamide]

EC50 (compounds of Table 1 (Table 6)): < 100 nM
SMILES: O=C(NC1CCN(Cc2cccnc2)CC1)c1cc2ccc(OC3CCN(c4ccc(OC(F)(F)F)cc4)CC3)cc2o1 [1-95, N-(1-(pyridin-3-ylmethyl)piperidin-4-yl)-6-(1-(4-(trifluoromethoxy)phenyl)piperidin-4-yloxy)benzofuran-2-carboxamide]

EC50 (compounds of Table 1 (Table 6)): 500 to 1000 nM
SMILES: O=C(NC1CCN(Cc2ccccc2)CC1)c1cc2cc(OC3CCN(Cc4cccc(C(F)(F)F)c4)CC3)ccc2o1 [1-73, N-(1-benzylpiperidin-4-yl)-5-(1-(3-(trifluoromethyl)benzyl)piperidin-4-yloxy)benzofuran-2-carboxamide]

EC50 (compounds of Table 1 (Table 6)): < 100 nM
SMILES: N#Cc1ccc(CN2CCC(NC(=O)c3ccc(OC4CCN(c5ccc(C(F)(F)F)cc5)CC4)cn3)CC2)cc1 [1-4, N-(1-(4-cyanobenzyl)piperidin-4-yl)-5-(1-(4-(trifluoromethyl)phenyl)piperidin-4-yloxy)picolinamide]

EC50 (compounds of Table 1 (Table 6)): < 100 nM
SMILES: CN(C(=O)c1cc2cc(OC3CCN(c4ccc(C(F)(F)F)cc4)CC3)ccc2o1)C1CCN(Cc2ccc(C#N)cc2)CC1 [1-107, N-(1-(4-cyanobenzyl)piperidin-4-yl)-N-methyl-5-(1-(4-(trifluoromethyl)phenyl)piperidin-4-yloxy)benzofuran-2-carboxamide]

EC50 (compounds of Table 3 (Table 8)): < 100 nM
SMILES: O=C(NC1CCN(Cc2ccncc2)CC1)c1cnc(OC2CCN(c3ccc(C(F)(F)F)cc3)CC2)cn1 [3-21, N-(1-(pyridin-4-ylmethyl)piperidin-4-yl)-5-(1-(4-(trifluoromethyl)phenyl)piperidin-4-yloxy)pyrazine-2-carboxamide]

EC50 (compounds of Table 1 (Table 6)): 500 to 1000 nM
SMILES: O=C(NC1CCN(Cc2ccncc2)CC1)c1ccnc(OC2CCN(c3ccc(C(F)(F)F)cc3)CC2)c1 [1-20, N-(1-(pyridin-4-ylmethyl)piperidin-4-yl)-2-(1-(4-(trifluoromethyl)phenyl)piperidin-4-yloxy)isonicotinamide]

EC50 (compounds of Table 3 (Table 8)): 100 to 1000 nM
SMILES: NC(=O)c1ccc(CN2CC3CC2CN3C(=O)c2nc3ccc(OC4CCN(c5ccc(C(F)(F)F)cc5)CC4)cc3o2)cc1 (stereo not drawn) [3-9, 4-((5-(6-(1-(4-(trifluoromethyl)phenyl)piperidin-4-yloxy)benzo[d]oxazole-2-carbonyl)-2,5-diazabicyclo[2.2.1]heptan-2-yl)methyl)benzamide]

EC50 (compounds of Table 2 (Table 7)): > 100000 nM
SMILES: NC(=O)c1ccc(CN2CCC(NC(=O)c3ccc4[nH]c5c(c4c3)CN(Cc3ccc(C(N)=O)cc3)CC5)CC2)cc1 [2-49, 2-(4-carbamoylbenzyl)-N-(1-(4-carbamoylbenzyl)piperidin-4-yl)-2,3,4,5-tetrahydro-1H-pyrido [4,3-b]indole-8-carboxamide]

EC50 (compounds of Table 4 (Table 9)): 1000 to 5000 nM
SMILES: O=C(N[C@H]1CCN(Cc2ccc(C(F)(F)F)cc2)C1)c1ccc(C(=O)N2CCN(c3ccc(Cl)cc3)CC2)cn1 [4-8, 5-(4-(4-chlorophenyl)piperazine-1-carbonyl)-N-(1-(4-(trifluoromethyl)benzyl)pyrrolidin-3-yl)picolinamide]

EC50 [1]: 20000 to 50000 nM
SMILES: O=C(c1ccc(OC2CCN(Cc3ccccc3)CC2)cc1)N1CCN(c2ccccc2)CC1 [5-103, (4-(1-benzylpiperidin-4-yloxy)phenyl)(4-phenylpiperazin-1-yl)methanone]

EC50 (compounds of Table 2 (Table 7)): < 500 nM
SMILES: Cn1c2c(c3cc(C(=O)NC4CCN(Cc5ccc(C#N)cc5)CC4)ccc31)CN(Cc1ccc(C(F)(F)F)cc1)CC2 [2-16]

EC50 [1]: < 1000 nM
SMILES: O=C(NC1CCN(Cc2ccccc2)CC1)c1ccc(OC2CCN(Cc3ccc(OC(F)(F)F)cc3)CC2)cc1 [5-63, N-(1-benzylpiperidin-4-yl)-4-(1-(4-(trifluoromethoxy)benzyl)piperidin-4-yloxy)benzamide]

EC50 [1]: < 1000 nM
SMILES: Cc1ccc(CN2CCC(Oc3ccc(C(=O)NC4CCN(Cc5ccc(Cl)cc5)CC4)cc3F)CC2)cc1 [5-73, N-(1-(4-chlorobenzyl)piperidin-4-yl)-3-fluoro-4-(1-(4-methylbenzyl)piperidin-4-yloxy)benzamide]

EC50 (compounds of Table 1 (Table 6)): < 100 nM
SMILES: O=C(NC1CCN(Cc2ccc(C(F)(F)F)cc2)CC1)c1cc2ccc(OC3CCN(c4ccc(C(F)(F)F)cc4)CC3)cc2o1 [1-99, N-(1-(4-(trifluoromethyl)benzyl)piperidin-4-yl)-6-(1-(4-(trifluoromethyl)phenyl)piperidin-4-yloxy)benzofuran-2-carboxamide]

EC50 (compounds of Table 1 (Table 6)): < 100 nM
SMILES: O=C(NC1CCN(Cc2ccncc2)CC1)c1cc2cc(OC3CCN(c4ccc(C(F)(F)F)cc4)CC3)ccc2s1 [1-138, N-(1-(pyridin-4-ylmethyl)piperidin-4-yl)-5-(1-(4-(trifluoromethyl)phenyl)piperidin-4-yloxy)benzo[b]thiophene-2-carboxamide]

EC50 (compounds of Table 1 (Table 6)): < 100 nM
SMILES: O=C(NC1CCN(Cc2ccc(C(F)(F)F)cc2)CC1)c1cc2cc(OC3CCN(c4ccc(C(F)(F)F)cc4)CC3)ccc2o1 [1-100, N-(1-(4-(trifluoromethyl)benzyl)piperidin-4-yl)-5-(1-(4-(trifluoromethyl)phenyl)piperidin-4-yloxy)benzofuran-2-carboxamide]

EC50 (compounds of Table 2 (Table 7)): 10000 to 50000 nM
SMILES: O=C(NC1CCN(C(=O)c2ccc(F)cc2)CC1)c1ccc2[nH]c3c(c2c1)CN(c1ccc(F)cc1)CC3 [2-39, N-(1-(4-fluorobenzoyl)piperidin-4-yl)-2-(4-fluorophenyl)-2,3,4,5-tetrahydro-1H-pyrido[4,3-b]indole-8-carboxamide]

EC50 (compounds of Table 1 (Table 6)): 100 to 500 nM
SMILES: CN(C(=O)c1cc2cc(OC3CCN(c4ccc(C(F)(F)F)cc4)CC3)ccc2o1)C1CCN(C(=O)c2ccncc2)CC1 [1-118, N-(1-isonicotinoylpiperidin-4-yl)-N-methyl-5-(1-(4-(trifluoromethyl)phenyl)piperidin-4-yloxy)benzofuran-2-carboxamide]

EC50 (compounds of Table 3 (Table 8)): < 100 nM
SMILES: N#Cc1ccc(CN2CCC(NC(=O)c3cnc(OC4CCN(c5ccc(C(F)(F)F)cc5)CC4)s3)CC2)cc1 [3-23, N-(1-(4-cyanobenzyl)piperidin-4-yl)-2-(1-(4-(trifluoromethyl)phenyl)piperidin-4-yloxy)thiazole-5-carboxamide]

EC50 [1]: < 1000 nM
SMILES: O=C(NC1CCN(Cc2ccccc2)CC1)c1ccc(OC2CCN(Cc3cccc(C(F)(F)F)c3)CC2)c(Cl)c1 [5-60, N-(1-benzylpiperidin-4-yl)-3-chloro-4-(1-(3-(trifluoromethyl)benzyl)piperidin-4-yloxy)benzamide]
